According to patent US20140162974A1, “METHODS FOR MODULATION OF PHOSPHORUS AND FGF23” (Luitpold Pharmaceuticals, Inc., priority 2012, published 2014):

What was measured:
[1] = Acute toxicity relative to iron sucrose; conditions: in vivo
Text: FCM can mimic physiologically occurring ferritin. FCM is metabolized by the glycolytic pathway.

[2] = Example 3 trial: adverse events; assay type: in vivo, human
Method: Study visits were on Days 0 (when iron was infused), 1 (24 hours after iron infusion), 7, 14, and 35. The primary objectives were to determine the effect of iron deficiency on cFGF23 and iFGF23 levels and the effect of intravenous iron on iFGF23 and cFGF23 levels.
Randomization occurred centrally via a fax-based system. […] The complete dose was infused over 15 minutes on day 0. […] An initial test dose of 25 mg was administered slowly over 5 minutes.
Laboratory testing of blood and three-hour urine collections was performed at the screening visit and on study days 0 (when iron was infused), 1 (24 hours after iron infusion), 7, 14, and 35 (see e.g., FIG. 2A). Any subject who experienced a reduction in serum phosphate below the normal range after day 0 underwent additional phosphate measurements at 14 day intervals following day 35 until the level returned to the normal reference range. Safety evaluations of all subjects included ascertainment of adverse events, physical examinations at all study visits, and laboratory assessments. Any subject who withdrew from the study received a follow-up phone call to ascertain adverse events 30 days after they received study drug.
The pre-specified primary endpoints were changes in blood and urine markers of phosphate and bone metabolism among the evaluable population, defined as those subjects with baseline and at least one post-randomization set of FGF23 and blood and urinary phosphate levels. Secondary endpoints included the proportion of subjects achieving a hemoglobin increase […] anytime between baseline and day 35, and the change from baseline to highest hemoglobin, ferritin, and TSAT anytime during the 35-day study period. Additional safety endpoints included incidence, severity, and seriousness of adverse events, and incidence of treatment-emergent abnormal clinical laboratory values in the safety population, defined as all subjects who received the study drug regardless of subsequent laboratory testing.
The number and proportion of subjects who experienced an adverse event in the safety population was summarized and rates between the iron treatment groups using Fisher's exact test were compared for the categorical safety endpoints. Analyses were conducted using SAS version 9 (Cary, N.C.). All statistical tests were 2-tailed and p values<0.05 were considered statistically significant.

[3] = VIT-30 safety: composite cardiovascular endpoint and adverse events; assay type: in vivo
Method: Study visits were on Days 0, 3, 7, 10, 14, 28, 56, and 120. A phone assessment occurred on Day 90.
The Venofer Group received 5 doses of Venofer, 200 mg for a total dose of 1,000 mg.
For Venofer, subjects received, as an IV push injection over 2 to 5 minutes, 200 mg on Days 0, 7, and 14 with 2 additional doses given: 1 between Days 0 and 7 and the other between Days 7 and 14 (i.e., for a total of 5 doses [1,000 mg]).
For safety, the primary measure was the proportion of subjects experiencing treatment-emergent adverse event included in the primary composite safety endpoint. Treatment-emergent events included events that started on or after the first dose of randomized treatment. The composite safety endpoint included: deaths due to any cause; nonfatal myocardial infarction; nonfatal stroke; unstable angina requiring hospitalization; congestive heart failure requiring hospitalization or medical intervention; arrhythmias; protocol-defined hypertensive events; and protocol-defined hypotensive events. These events were adjudicated in a blinded fashion. Supportive safety measures included: proportion of subjects who died (all cause mortality); time to first event comprising the primary composite safety endpoint; proportion of subjects reporting treatment-emergent adverse events, overall and related; proportion of subjects reporting treatment-emergent serious adverse events, overall and related; incidence of treatment-emergent potentially clinically significant (PCS) clinical laboratory values; and incidence of treatment-emergent PCS vital sign values.
The Safety Population consisted of all subjects who received a dose of randomized treatment. All safety analyses were performed with the Safety Population.
Safety assessments were summarized for the Safety Population unless stated otherwise. Subjects were analyzed under the treatment actually received.
The precision of the estimated treatment group difference was measured by the width of the 95% CI.
The number and percent of subjects who reported treatment-emergent adverse events were summarized for each treatment group. A treatment-emergent adverse event was an event that began after receipt of randomized treatment.
The adverse event profile was characterized with severity (as graded by Version 3.0 of the NCI CTCAE) and relationship (unrelated and related) to study drug. Related adverse events were events that were possibly or probably related to treatment in the Investigator's judgment. Events with unknown severity or relationship were counted as unknown.
The number and percent of subjects who reported treatment-emergent serious adverse events were similarly summarized for each treatment group. The number and percent of subjects who reported treatment-emergent adverse events resulting in discontinuation of study drug were similarly summarized for each treatment group.
Time to the first adverse event comprising the primary composite safety endpoint was summarized with the Kaplan-Meier approach. […] The log-rank statistic were used to compare time-to-event curves between treatment groups and a 95% CI of the hazard ratio was calculated with a Cox proportional hazards model.

In the case of “polynuclear iron (III)-hydroxide 4(R)-(poly-(1→4)-O-α-glucopyranosyl)-oxy-2(R),3(S),5(R),6-tetrahydroxy-hexanoate [FCM]”, the “acute toxicity relative to iron sucrose” value [1] is reported as “one-fifth”, the “subjects who experienced one or more adverse events” value [2] is reported as 68% and the “subjects with adverse events considered to be related to study drug” value [2] is reported as 32%. For the same substance, the “adverse event: reduced serum phosphate noted by subjects' physicians” value ([2]; p=0.008 between groups) was 32%, the “Discontinuation from study due to adverse event, n (%)” value ([2]; safety population) was 2 (8%) n (%) and the “Patients experiencing one or more adverse events related to study drug, n (%)” value ([2]; safety population) was 8 (32%) n (%). The “Patients experiencing one or more adverse events, n (%)” value ([2]; safety population) was 17 (68%) n (%), the “Patients experiencing one or more serious adverse events, n (%)” value ([2]; safety population) was 0 (0%) n (%) and the tolerability ([3]; 2 injections of 750 mg) was “well tolerated”. The “subjects who discontinued the study or study drug subsequent to a protocol-defined hypertensive event” value ([3]; 10 subjects) was 10.5%, the “hazard ratio (FCM versus Venofer) excluding protocol-defined hypertensive and hypotensive events” value ([3]; Cox proportional hazards) was 1.017 and the “hazard ratio (FCM versus Venofer) for death due to any cause, nonfatal myocardial infarction, or nonfatal stroke” value ([3]; Cox proportional hazards) was 0.685. The protocol-defined hypertensive events ([3]; component of primary composite safety endpoint) was 7.45%, the “drug related treatment emergent adverse event: dizziness” value ([3]; in vivo) was 2.4% and the “drug related treatment emergent adverse event: flushing” value ([3]; in vivo) was 3.0%. For the same substance, the “drug related treatment emergent adverse event: hypertension” value ([3]; in vivo) was 4.6%, the “drug related treatment emergent adverse event: nausea” value ([3]; in vivo) was 8.6% and the “drug related treatment emergent adverse event: vomiting” value ([3]; in vivo) was 2.0%. For the same substance, the “serious adverse event: cardiac failure congestive” value ([3]; in vivo) was 2.4%, the “subjects prematurely discontinued from study drug due to adverse events” value ([3]; in vivo) was 2.6% and the “subjects with Grade 3 treatment emergent adverse events” value ([3]; in vivo) was 12.9%. The “subjects with Grade 4 treatment emergent adverse events” value ([3]; in vivo) was 4.7%, the “subjects with Grade 5 (fatal) treatment emergent adverse events” value ([3]; in vivo) was 1.2% and the “subjects with adjudicated events of death due to any cause, nonfatal myocardial infarction, or nonfatal stroke” value ([3]; in vivo) was 1.88%. For the same substance, the “subjects with adverse event that resulted in discontinuation from the study” value ([3]; in vivo) was 2.4%, the “subjects with at least 1 serious adverse event” value ([3]; in vivo) was 15.8% and the “subjects with at least 1 treatment emergent adverse event” value ([3]; in vivo) was 65.4%. For the same substance, the “treatment emergent adverse event: hypertension” value ([3]; in vivo) was 10.7%, the “treatment emergent adverse event: nausea” value ([3]; in vivo) was 13.5% and the “subjects with at least 1 drug related treatment emergent adverse event” value ([3]; possibly or probably related) was 23.4%.
